# Measured values as given in patent US6573078B1, “Compounds which inhibit HIV replication” (priority 1992, dated 2003).
# Experiments:
# Format in all cases: cell-based
# [1] = system: two primary HIV-1 isolates (HIV-1Br3, HIV-1Q72775); test: Peptide inhibition of PBMC infection by primary isolates (RT activity readout); details: FIG. 5
# Description: (§1) About 25 TCID100 of two primary isolates and HIV-1LAI were added to […] human PBMCs (about 1.5×10^6/ml) containing the indicated final concentrations of test peptide or 5T4. Each treatment condition was tested in duplicate and the cells were cultured in RPMI1640 containing 10% FCS 5% IL2. Four days post infection an equal number of fresh PBMCs were added to each well. This step allows for further expansion of virus and increases the […] in the final RT assay. Supernatant was harvested 8 days after infection and tested for the presence of reverse transcriptase activity.
# (§2) The micro RT assay was adapted from Goff et al. (J. Virol. 38, 239 (1981)) and Willey et al. (J. Virol. 62, 139 (1988)). Supernatants from virus/cell cultures are made 1% in Triton-X100. A […] sample of supernatant was added to 50 ml of RT cocktail in a 96 well U bottom microtiter plate and the samples incubated at 370° C. for 90 min. […]
# (§3) The HIV1LAI virus was obtained from R. Gallo (see M. Popovic et al., Science 224, 497 (1984)) and propagated in CEM cells cultured in RPMI 1640 containing 10-% FCS. […] The TCID50 was calculated according to the Reed and Muench formula in accordance with known techniques. […] The titer of the HIV-1LAI stock used for these studies, as measured on the AA5 cell line, was approximately 1×10^7TCID50/ml. […]
# HIV-1LAI virus = test: Peptide blockade of HIV-1 induced cell-cell fusion (syncytia formation; Molt4 cells co-cultivated with chronically infected CEM cells); details: for No. Syncytia/well: Table 3, ctrl cells only = 85
# Description: The initial screen for antiviral activity of the peptides shown in FIG. 1 was for blockade of syncytium formation induced by overnight co-cultivation of uninfected Molt4 cells with chronically infected (HIV-1IIIB) CEM cells.
# Approximately 7×10^4 Molt cells were incubated with 1×10^4 CEM cells chronically infected with the HIV-1LAI virus in 96 well plates (one-half area cluster plates;Costar. Cambridge, Mass.) in a final volume of […] culture media in accordance with known techniques (T. Matthews et al., Proc. Natl. Acad. Sci. U.S.A. 84, 5424 (1987)). Peptide inhibitors were added in a volume of […] and the cell mixtures were incubated for 24 hr at 37° C. At that time point, multinucleated giant cells were estimated by microscopic examination at a 40× magnification which allowed visualization of the entire well in a single field.
# HIV-1LAI [2] = test: Peptide inhibition of PBMC infection by prototypic isolate (RT activity readout); details: FIG. 5
# Description: as §1, §2, §3
# HIV-1LAI [3] = test: Peptide inhibition of infection by cell-free virus (neutralization assay; AA5 cells, RT activity readout)
# Description: Cell cultures were maintained in 96-well microtiter plates for 8 days by addition of fresh medium (but no further addition of peptides) every other day. On the eighth day post-infection, supernatant was tested for reverse transcriptase activity as evidence of successful infection.
# The micro RT assay was adapted from Goff et al. (J. Virol. 38, 239 (1981)) and Willey et al. (J. Virol. 62, 139 (1988)). Supernatants from virus/cell cultures are made 1% in Triton-X100. A […] sample of supernatant was added to 50 ml of RT cocktail in a 96 well U bottom microtiter plate and the samples incubated at […] for 90 min. The cocktail contained 75 mM KCl, 2 mM dithiothreitol, 5 mm Mgcl2l 5 mg/ml poly A (Pharmacia cat. No. 27-4110-01), 0.25 units/ml oligo dT (Pharmacia cat. No. 27-7858-01), 0.05% NP40, 50 mM Tris-HC1, pH 7.8, 0.5 mM non-radioactive dTTP, and 10 mCi/ml ^32p-dTTP (Amersham cat. No. PB.10167). After the incubation period, 40 ml of reaction mixture was applied to a Schleicher and Schuell NA45 membrane (or DE81 paper) saturated in 2×SSC buffer (0.3M NaCl and […]) held in a Schleicher and Schuell Minifold over one sheet of GB003 filter paper. Each well of the minifold was washed four times with […] 2×SSC. The membrane was removed from the minifold and washed 2 more times in a pyrex dish with an excess of 2×SSC. Finally the membrane was drained on absorbent paper, placed on Whatman #3 paper, covered with saran wrap, and exposed to film overnight.
# The HIV1LAI virus was obtained from R. Gallo (see M. Popovic et al., Science 224, 497 (1984)) and propagated in CEM cells cultured in RPMI 1640 containing 10-% FCS. Supernatant from the infected CEM cells was passed through a […] and the infectious titer estimated in a microinfectivity assay using the AA5 cell line to support virus replication. For this purpose 25 ml of serially diluted virus was added to 75 ml AA5 cells at 2×10^5/ml in a 96 well microtiter plate. Each virus dilution was tested in triplicate. Cells were cultured for eight days by addition of fresh medium every other day. On day 8 post infection supernatant samples were tested for virus replication as evidenced by RT activity released to the supernatant in accordance with the procedure described above. The TCID50 was calculated according to the Reed and Muench formula in accordance with known techniques. See L. Reed et al., Amer. J. Hygiene 27, 493 (1938) . The titer of the HIV-1LAI stock used for these studies, as measured on the AA5 cell line, was approximately 1×10^7TCID50/ml. The two primary isolates were obtained from PBMCs of two infected donors, one from Brazil (HIV-1Br3) and the other Trinidad (HIV-1Q72775) by co-cultivation with PHA-blasted normal donor PBMCs in RPMI 1640 containing IL2. The infectious titers of the primary virus stocks were estimated by titration onto normal human PHA blasted PBMCs in a 96 well microtiter plate, again using RT activity released to the supernatant as evidence for successful infection. The infectious titer of both of these isolates was estimated to be approximately 1×10^3 TCID100/ml.
# The peptides were next tested for blockade of infection by cell-free virus. The results shown in FIG. 3 are representative of several experiments in which the DP-107, 125, and (CS3) peptides were compared for potency in the blockade of HIVLAI, infection of AA5 cells. Each level of peptide was incubated in triplicate with about 500 TCID50 of virus and cells. After 7 days of culture, cell-free supernatant was tested for the presence of RT activity as a measure of successful infection.
sequence,measurement,setting,value
CGNNLLRAIEAQQHLLQLTVWGIKQLQARILAVERYLKDQ (CGGNNLLRAIEAQQHLLQLTVWGIKQLQARILAVERYLKDQ) [DP-125],Inhibition of PBMC infection by primary isolates (in words),[1],inhibit
same,Syncytia Number,"HIV-1LAI virus; EXP. 2, peptide concentration 1.25 micrograms/ml, 0 peptide = 93",35
same,Syncytia Number,"HIV-1LAI virus; EXP. 2, peptide concentration 2.5 micrograms/ml, 0 peptide = 93",3
same,Syncytia Number,"HIV-1LAI virus; EXP. 2, peptide concentration 5 micrograms/ml, 0 peptide = 93",0
same,Syncytia Number,"HIV-1LAI virus; EXP. 2, peptide concentration 10 micrograms/ml, 0 peptide = 93",0
same,Syncytia Number,"HIV-1LAI virus; EXP. 2, peptide concentration 20 micrograms/ml, 0 peptide = 93",0
same,Syncytia Number,"HIV-1LAI virus; EXP. 2, peptide concentration 40 micrograms/ml, 0 peptide = 93",0
same,Syncytia Number,"HIV-1LAI virus; EXP. 3, peptide concentration 1.25 micrograms/ml, 0 peptide = 76",0
same,Syncytia Number,"HIV-1LAI virus; EXP. 3, peptide concentration 2.5 micrograms/ml, 0 peptide = 76",0
same,Syncytia Number,"HIV-1LAI virus; EXP. 3, peptide concentration 5 micrograms/ml, 0 peptide = 76",0
same,Syncytia Number,"HIV-1LAI virus; EXP. 3, peptide concentration 10 micrograms/ml, 0 peptide = 76",0
same,Syncytia Number,"HIV-1LAI virus; EXP. 3, peptide concentration 20 micrograms/ml, 0 peptide = 76",0
same,Syncytia Number,"HIV-1LAI virus; EXP. 3, peptide concentration 40 micrograms/ml, 0 peptide = 76",0
same,No. Syncytia/well,HIV-1LAI virus; peptide concentration 1.25 ug/ml on IIIB,0
same,No. Syncytia/well,HIV-1LAI virus; peptide concentration 2.5 ug/ml on IIIB,0
same,No. Syncytia/well,HIV-1LAI virus; peptide concentration 5 ug/ml on IIIB,0
same,No. Syncytia/well,HIV-1LAI virus; peptide concentration 10 ug/ml on IIIB,0
same,No. Syncytia/well,HIV-1LAI virus; peptide concentration 20 ug/ml on IIIB,0
same,No. Syncytia/well,HIV-1LAI virus; peptide concentration 40 ug/ml on IIIB,0
same,Fusion: quantity of compound required for 90% reduction in number of syncytia,HIV-1LAI virus; control = 90 syncytia,<1 µg/mL
same,Concentration required for inhibition relative to DP107,"HIV-1LAI virus; syncytial blocking assays, Table 1 experiments 2 and 3",one-half to one-fourth
same,Inhibition of PBMC infection by prototypic isolate HIVLAI (in words),HIV-1LAI [2],inhibit
same,Neutraliz: quantity of compound required for 90% reduction in infectivity,HIV-1LAI [3],2 µg/mL
same,Dose required for inhibitory effect compared with DP-107 (in words),HIV-1LAI [3]; FIG. 3,lower
same,Blockade of HIVLAI infection of AA5 cells (in words),"HIV-1LAI [3]; about 500 TCID50 of virus, RT activity in supernatant, FIG. 3",inhibited the de-novo infection process
